In patent US10722597B2, “Cyclodextrin-panobinostat adduct” (MIDATECH LTD., priority 2016, dated 2020):

Legend:
[1] = system: HEPG2 (Hepatocellular carcinoma) cell line; experiment: MTT cell viability (cytotoxicity); type: cell-based; conditions: HEPG2, 48 or 72 hrs exposure
Method: (§1) Error bars indicate plus or minus standard deviation of triplicate samples. N=1 experimental replicate.
(§2) Cell viability was then assessed using MTT reagent.

[2] = system: U87MG (Glioblastoma) cell line; experiment: MTT cell viability (cytotoxicity); type: cell-based; conditions: 48 or 72 hrs exposure
Method: as §1, §2

[3] = HPLC stability of 10 mM panobinostat stock solutions at room temperature; type: physicochemical
Method: Samples were diluted to allow analysis by HPLC (to avoid overloading the system). Peak areas were measured for both solutions at time 0, 100 h and 150 h post preparation. Samples were stored at room temperature over the course of the analysis. Percentage change was calculated based on the peak area and compared to analysis at time zero. One replicate was analysed and 7.2 μl was injected (equivalent to 0.25 μg on column) for each sample. The concentration of the stock solutions assessed was 10 mM. Column: Ascentis Express Peptide, ES-C18, 10 cm×4.6 mm Mobile phases: 0.1% trifluoroacetic acid (TFA) in acetonitrile (organic) and 0.1% trifluoroacetic acid in water HPLC: Agilent 1260 infinity HPLC conditions used: […]

[4] = Solubility of panobinostat free base in aqueous media; type: physicochemical
Method: The pH of the first aqueous solution is in the range 2.0 to 4.0, for example 2.5 to 3.5. Preferably, the pH of the first aqueous solution is about 3.0.
It is similarly insoluble in concentrated aqueous solutions of 2-hydroxypropyl-β-cyclodextrin (HP-β-CD) (450 mg/ml).

| Decrease of Panobinostat concentration ([3]; DMSO solution, 100 hrs) | Decrease of Panobinostat concentration ([3]; DMSO solution, 150 hrs) | Decrease of Panobinostat concentration ([3]; citrate solution, 100 hrs) | Decrease of Panobinostat concentration ([3]; citrate solution, 150 hrs) | solubility ([4]; aqueous buffer, thermodynamic from solid, free base, citrate buffer at pH 3.0, read-out: Soluble concentration in citrate buffer) | Solubility in citrate buffer ([4]; citrate buffer at pH 3.0) | Solubility in concentrated aqueous 2-hydroxypropyl-β-cyclodextrin ([4]; free base, HP-β-CD 450 mg/ml) | Solubility in water ([4]; free base, water) | Compound | Toxicity (cell viability, MTT) [1] | Toxicity (cell viability, MTT) [2] |
| --- | --- | --- | --- | --- | --- | --- | --- | --- | --- | --- |
| – | – | – | – | – | – | – | – | 2-hydroxypropyl-β-cyclodextrin | essentially non-toxic | essentially non-toxic |
| 2.8% | 4.4% | 0.4% | 1% | ≥ 10 mM | soluble | insoluble | poorly soluble | Cc1[nH]c2ccccc2c1CCNCc1ccc(/C=C/C(=O)NO)cc1 [Panobinostat, 2-(E)-N-hydroxy-3-[4[[[2-(2-methyl-1H-indol-3-yl)ethyl]amino]methyl]phenyl]-2-propenamide] | – | – |
